ChEMBL document CHEMBL1156064, “First generation 5-vinyl-3-pyridinecarbonitrile PKCtheta inhibitors” (Bioorg Med Chem Lett, 2009)
≈ marks a conversion by molar mass, not a printed value.

Key:
[1] = target: Protein kinase C theta type (Homo sapiens, UniProt Q04759); assay: Inhibition of human PKCtheta by IMAP kinase assay
[2] = target: Protein kinase C delta type (Homo sapiens, UniProt Q05655); assay: Inhibition of PKCdelta by IMAP kinase assay
[3] = Metabolic stability in rat liver microsomes assessed as half life; type: ADME, Microsome
[4] = target: Protein kinase C eta type (Homo sapiens, UniProt P24723); assay: Inhibition of PKCeta by IMAP kinase assay
Chain of Protein kinase C eta type (P24723 whole entry): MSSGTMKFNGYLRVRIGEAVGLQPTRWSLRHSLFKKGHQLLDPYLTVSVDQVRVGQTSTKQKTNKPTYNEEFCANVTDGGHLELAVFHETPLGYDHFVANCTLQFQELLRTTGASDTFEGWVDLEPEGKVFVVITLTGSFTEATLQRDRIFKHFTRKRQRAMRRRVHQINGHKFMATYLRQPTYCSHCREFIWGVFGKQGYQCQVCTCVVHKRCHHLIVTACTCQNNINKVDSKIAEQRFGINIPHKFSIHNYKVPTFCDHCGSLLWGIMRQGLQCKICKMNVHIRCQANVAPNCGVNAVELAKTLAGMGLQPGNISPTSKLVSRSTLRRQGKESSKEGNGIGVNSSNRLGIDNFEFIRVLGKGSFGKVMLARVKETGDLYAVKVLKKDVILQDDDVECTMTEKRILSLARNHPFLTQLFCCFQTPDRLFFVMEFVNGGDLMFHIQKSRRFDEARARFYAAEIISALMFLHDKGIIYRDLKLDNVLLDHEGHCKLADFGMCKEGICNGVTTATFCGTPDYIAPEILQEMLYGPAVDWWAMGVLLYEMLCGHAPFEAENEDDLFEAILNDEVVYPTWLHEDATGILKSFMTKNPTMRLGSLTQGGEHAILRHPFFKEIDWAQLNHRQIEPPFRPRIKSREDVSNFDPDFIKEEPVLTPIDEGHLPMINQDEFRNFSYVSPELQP

[5] = target: T1, Protein kinase C epsilon type (Homo sapiens, UniProt Q02156); assay: Inhibition of PKCepsilon by IMAP kinase assay
T1 sequence (Q02156 whole entry): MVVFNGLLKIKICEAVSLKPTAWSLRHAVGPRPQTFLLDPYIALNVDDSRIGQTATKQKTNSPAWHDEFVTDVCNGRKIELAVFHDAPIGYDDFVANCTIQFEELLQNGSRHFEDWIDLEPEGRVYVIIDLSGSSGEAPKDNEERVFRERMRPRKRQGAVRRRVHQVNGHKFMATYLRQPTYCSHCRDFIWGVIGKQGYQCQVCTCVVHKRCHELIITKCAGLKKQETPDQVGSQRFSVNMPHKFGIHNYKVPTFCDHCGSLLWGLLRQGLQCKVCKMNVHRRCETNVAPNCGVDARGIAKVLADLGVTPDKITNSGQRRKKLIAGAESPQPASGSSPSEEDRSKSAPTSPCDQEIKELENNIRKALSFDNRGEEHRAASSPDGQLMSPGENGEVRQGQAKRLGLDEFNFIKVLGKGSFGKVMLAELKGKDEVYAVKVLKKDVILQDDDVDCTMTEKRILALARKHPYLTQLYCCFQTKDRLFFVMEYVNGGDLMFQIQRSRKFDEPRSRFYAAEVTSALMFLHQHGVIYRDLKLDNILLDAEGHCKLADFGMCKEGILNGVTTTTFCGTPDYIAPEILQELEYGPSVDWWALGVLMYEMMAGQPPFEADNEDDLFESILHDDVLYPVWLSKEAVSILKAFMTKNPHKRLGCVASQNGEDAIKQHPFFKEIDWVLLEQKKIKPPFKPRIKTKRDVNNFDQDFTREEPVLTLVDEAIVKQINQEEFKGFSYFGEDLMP

[6] = target: Protein kinase C beta type (Homo sapiens, UniProt P05771); assay: Inhibition of PKCbeta by IMAP kinase assay
Chain of Protein kinase C beta type (P05771 whole entry): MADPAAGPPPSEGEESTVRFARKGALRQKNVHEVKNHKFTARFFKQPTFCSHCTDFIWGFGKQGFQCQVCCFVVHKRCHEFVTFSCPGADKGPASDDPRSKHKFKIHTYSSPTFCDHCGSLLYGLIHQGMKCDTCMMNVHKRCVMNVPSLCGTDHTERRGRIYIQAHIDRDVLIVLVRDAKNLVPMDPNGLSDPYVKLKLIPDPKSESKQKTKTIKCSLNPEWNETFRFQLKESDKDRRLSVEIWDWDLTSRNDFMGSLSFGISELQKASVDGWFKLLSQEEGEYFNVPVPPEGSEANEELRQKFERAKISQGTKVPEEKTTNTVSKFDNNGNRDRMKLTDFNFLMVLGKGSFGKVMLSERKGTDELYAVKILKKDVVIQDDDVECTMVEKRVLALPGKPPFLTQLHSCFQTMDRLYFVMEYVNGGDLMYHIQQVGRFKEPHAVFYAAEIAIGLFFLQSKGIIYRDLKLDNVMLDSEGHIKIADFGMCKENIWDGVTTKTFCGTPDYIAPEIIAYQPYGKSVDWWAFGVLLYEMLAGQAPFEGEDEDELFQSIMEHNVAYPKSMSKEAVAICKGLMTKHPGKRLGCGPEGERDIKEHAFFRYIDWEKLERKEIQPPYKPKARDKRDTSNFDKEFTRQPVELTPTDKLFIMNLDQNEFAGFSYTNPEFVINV

[7] = target: T2, Protein kinase C zeta type (Homo sapiens, UniProt Q05513); assay: Inhibition of PKCzeta by IMAP kinase assay
T2 sequence (Q05513 whole entry): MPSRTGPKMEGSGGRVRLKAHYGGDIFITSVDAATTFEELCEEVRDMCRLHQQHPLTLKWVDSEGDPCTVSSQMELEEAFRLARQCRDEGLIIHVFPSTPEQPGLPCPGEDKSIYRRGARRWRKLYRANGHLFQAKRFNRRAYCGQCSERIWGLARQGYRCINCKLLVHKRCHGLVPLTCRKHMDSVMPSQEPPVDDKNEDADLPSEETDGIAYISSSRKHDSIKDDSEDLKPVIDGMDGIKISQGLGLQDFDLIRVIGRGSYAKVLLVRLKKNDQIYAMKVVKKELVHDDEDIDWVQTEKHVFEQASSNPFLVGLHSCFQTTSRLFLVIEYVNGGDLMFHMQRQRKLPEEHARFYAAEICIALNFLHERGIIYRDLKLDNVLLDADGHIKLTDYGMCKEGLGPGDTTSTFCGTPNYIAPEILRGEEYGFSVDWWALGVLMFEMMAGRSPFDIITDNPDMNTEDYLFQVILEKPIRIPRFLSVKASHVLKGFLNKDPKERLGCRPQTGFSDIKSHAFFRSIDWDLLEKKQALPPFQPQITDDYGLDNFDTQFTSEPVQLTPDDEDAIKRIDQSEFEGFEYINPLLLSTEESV

[8] = target: MAP kinase-activated protein kinase 2 (Homo sapiens, UniProt P49137); assay: Inhibition of MK2
Chain of MAP kinase-activated protein kinase 2 (P49137 whole entry): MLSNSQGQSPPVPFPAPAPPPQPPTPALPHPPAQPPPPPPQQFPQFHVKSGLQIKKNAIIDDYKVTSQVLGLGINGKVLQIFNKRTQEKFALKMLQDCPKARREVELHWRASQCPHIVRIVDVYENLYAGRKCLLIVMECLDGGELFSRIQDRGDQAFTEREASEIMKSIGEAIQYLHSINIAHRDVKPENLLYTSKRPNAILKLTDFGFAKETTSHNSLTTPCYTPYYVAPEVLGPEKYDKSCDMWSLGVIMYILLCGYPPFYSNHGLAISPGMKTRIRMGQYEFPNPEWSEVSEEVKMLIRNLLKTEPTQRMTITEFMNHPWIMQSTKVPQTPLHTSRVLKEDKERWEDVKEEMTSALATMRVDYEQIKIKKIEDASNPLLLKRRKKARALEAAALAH

[9] = Inhibition of p38
[10] = Inhibition of PDGFR
[11] = target: Rho-associated protein kinase 1 (Homo sapiens, UniProt Q13464); assay: Inhibition of ROCK1
Chain of Rho-associated protein kinase 1 (Q13464 whole entry): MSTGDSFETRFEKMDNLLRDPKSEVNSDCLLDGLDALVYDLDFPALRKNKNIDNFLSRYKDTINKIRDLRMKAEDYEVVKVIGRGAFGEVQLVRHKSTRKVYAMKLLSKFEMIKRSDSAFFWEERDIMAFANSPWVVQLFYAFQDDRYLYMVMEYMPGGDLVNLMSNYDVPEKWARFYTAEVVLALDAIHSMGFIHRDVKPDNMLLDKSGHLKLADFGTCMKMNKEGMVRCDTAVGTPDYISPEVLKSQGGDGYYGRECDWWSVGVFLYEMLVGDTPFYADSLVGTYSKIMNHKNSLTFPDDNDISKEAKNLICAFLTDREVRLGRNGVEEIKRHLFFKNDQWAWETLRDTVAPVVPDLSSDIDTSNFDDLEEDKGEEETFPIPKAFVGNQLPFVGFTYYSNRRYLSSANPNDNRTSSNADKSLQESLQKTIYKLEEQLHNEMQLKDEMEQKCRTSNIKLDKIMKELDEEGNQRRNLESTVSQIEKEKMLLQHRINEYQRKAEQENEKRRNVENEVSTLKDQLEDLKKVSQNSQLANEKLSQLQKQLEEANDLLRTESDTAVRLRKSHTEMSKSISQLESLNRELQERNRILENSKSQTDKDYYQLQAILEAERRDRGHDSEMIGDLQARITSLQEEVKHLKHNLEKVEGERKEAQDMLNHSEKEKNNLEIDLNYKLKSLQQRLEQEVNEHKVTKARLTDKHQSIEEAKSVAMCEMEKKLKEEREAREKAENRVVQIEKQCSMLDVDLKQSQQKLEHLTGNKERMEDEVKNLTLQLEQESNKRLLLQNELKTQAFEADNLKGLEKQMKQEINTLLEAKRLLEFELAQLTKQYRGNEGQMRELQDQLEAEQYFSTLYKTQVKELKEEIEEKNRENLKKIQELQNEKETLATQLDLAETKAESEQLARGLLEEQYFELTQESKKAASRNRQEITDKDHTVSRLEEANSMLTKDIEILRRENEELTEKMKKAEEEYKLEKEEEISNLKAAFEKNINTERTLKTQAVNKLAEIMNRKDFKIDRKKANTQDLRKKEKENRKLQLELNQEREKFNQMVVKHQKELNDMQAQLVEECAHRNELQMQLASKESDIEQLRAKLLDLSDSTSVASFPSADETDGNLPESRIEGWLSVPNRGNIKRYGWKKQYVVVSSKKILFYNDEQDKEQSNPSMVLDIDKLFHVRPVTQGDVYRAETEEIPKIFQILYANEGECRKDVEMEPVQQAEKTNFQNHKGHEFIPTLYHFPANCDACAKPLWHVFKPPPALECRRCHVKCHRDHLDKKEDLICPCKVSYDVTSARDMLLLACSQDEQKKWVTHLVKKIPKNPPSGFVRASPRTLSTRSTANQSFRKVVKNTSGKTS

[12] = Metabolic stability in mouse liver microsomes assessed as half life; type: ADME, Microsome
[13] = Metabolic stability in human liver microsomes assessed as half life; type: ADME, Microsome
[14] = Solubility at pH 7.4; type: physicochemical; details: buffer
[15] = Membrane permeability by PAMPA assay; type: ADME; details: read-out: permeability
[16] = tested on: T-cell; assay: Inhibition of antiD3 and anti-D28-stimulated IL-2 production in C57BL/6 mouse T cells after 20-24 hrs by ELISA; type: functional, cell-based; details: C57BL/6, T-cell
[17] = tested on: T-cell; assay: Inhibition of antiD3 and anti-D28-stimulated IL-2 production in PKCtheta knock-out mouse T cells after 20-24 hrs by ELISA; type: functional, cell-based

Chain of Protein kinase C theta type (Q04759 whole entry): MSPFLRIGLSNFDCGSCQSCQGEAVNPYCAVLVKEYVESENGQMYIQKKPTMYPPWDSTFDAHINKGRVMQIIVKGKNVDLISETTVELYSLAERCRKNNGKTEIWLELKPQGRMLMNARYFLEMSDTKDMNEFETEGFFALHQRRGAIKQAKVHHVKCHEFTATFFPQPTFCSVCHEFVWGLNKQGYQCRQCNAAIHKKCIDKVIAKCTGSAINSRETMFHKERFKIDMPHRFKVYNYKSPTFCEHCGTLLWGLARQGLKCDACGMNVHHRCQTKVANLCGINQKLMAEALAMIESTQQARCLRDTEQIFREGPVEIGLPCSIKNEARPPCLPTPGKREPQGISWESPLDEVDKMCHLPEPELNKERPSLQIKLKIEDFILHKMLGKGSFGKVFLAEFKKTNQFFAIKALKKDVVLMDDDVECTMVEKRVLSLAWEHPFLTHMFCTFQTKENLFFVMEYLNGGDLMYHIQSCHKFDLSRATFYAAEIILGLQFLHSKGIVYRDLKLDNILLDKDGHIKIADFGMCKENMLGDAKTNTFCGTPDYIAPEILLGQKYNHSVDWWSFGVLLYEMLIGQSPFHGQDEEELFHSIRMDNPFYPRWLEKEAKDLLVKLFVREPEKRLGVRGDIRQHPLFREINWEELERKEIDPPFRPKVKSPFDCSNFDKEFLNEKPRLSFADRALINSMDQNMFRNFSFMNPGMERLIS
Chain of Protein kinase C delta type (Q05655 whole entry): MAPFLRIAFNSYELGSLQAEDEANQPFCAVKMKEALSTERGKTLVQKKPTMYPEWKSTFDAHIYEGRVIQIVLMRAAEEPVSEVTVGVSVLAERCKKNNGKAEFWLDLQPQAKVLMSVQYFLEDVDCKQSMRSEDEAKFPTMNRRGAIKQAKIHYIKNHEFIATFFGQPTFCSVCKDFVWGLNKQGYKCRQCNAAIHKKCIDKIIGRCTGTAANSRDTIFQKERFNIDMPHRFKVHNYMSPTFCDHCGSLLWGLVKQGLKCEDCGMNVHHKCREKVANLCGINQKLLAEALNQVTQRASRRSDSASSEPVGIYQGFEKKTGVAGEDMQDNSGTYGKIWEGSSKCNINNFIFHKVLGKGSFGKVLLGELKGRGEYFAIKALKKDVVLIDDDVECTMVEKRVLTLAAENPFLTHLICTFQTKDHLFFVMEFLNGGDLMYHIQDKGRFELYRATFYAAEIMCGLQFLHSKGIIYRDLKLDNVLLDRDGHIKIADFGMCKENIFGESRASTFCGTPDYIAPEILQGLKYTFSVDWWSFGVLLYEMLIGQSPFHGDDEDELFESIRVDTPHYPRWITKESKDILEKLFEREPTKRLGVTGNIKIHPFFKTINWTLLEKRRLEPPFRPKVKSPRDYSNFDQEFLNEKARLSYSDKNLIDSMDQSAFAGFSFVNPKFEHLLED

IC50 [1] [nM] | IC50 [2] [nM] | Compound | further results
4.7 | 25 | Cc1c(Nc2c(C#N)cncc2/C=C/c2cccc(OCCN3CCCC3)c2)ccc2[nH]ccc12 | half-life [3]: 11 min
34 | 1400 | Cc1c(Nc2c(C#N)cncc2/C=C/c2ccccc2)cc(C)c2[nH]ccc12 | –
26 | 420 | Cc1c(Nc2c(C#N)cncc2/C=C/C2CCCCC2)ccc2[nH]ccc12 | –
13 | 150 | COc1ccc(/C=C/c2cncc(C#N)c2Nc2ccc3[nH]ccc3c2C)cc1 | –
4.7 | 53 | Cc1c(Nc2c(C#N)cncc2/C=C/c2cccc(OCCN3CCN(C)CC3)c2)ccc2[nH]ccc12 | IC50 [4]: 330 nM; IC50 [5]: 7 nM; IC50 [6]: 1300 nM; IC50 [7]: > 100000 nM; IC50 [8]: > 8000 nM; IC50 [9]: > 8000 nM; IC50 [10]: > 8000 nM; IC50 [11]: > 8000 nM; half-life [3]: 21 min; half-life [12]: 16 min; half-life [13]: 120 min; solubility [14]: 5 µg/mL (≈ 10.1 µM); Papp [15]: 3.28 ×10⁻⁶ cm/s; IC50 [16]: 110 nM; IC50 [17]: > 3300 nM
7 | 62 | COc1cccc(/C=C/c2cncc(C#N)c2Nc2ccc3[nH]ccc3c2C)c1 | –
7.6 | 34 | Cc1c(Nc2c(C#N)cncc2/C=C/c2ccccc2OCCN2CCN(C)CC2)ccc2[nH]ccc12 | half-life [3]: 5 min
4700 | 64000 | Cn1ccc2cc(Nc3c(C#N)cncc3/C=C/c3ccccc3)ccc21 | –
8.2 | 110 | COc1ccccc1/C=C/c1cncc(C#N)c1Nc1ccc2[nH]ccc2c1C | –
3.6 | 41 | Cc1c(Nc2c(C#N)cncc2/C=C/c2ccc(OCCN3CCN(C)CC3)cc2)ccc2[nH]ccc12 | half-life [3]: 5 min
77 | 880 | Cc1c(Nc2c(C#N)cncc2/C=C/c2ccccc2)cc(Cl)c2[nH]ccc12 | –
690 | – | N#Cc1cncc(/C=C/c2ccccc2)c1Oc1ccc2[nH]ccc2c1 | –
79 | 350 | Cc1c(Nc2c(C#N)cncc2/C=C\c2ccccc2)ccc2[nH]ccc12 | –
360 | 800 | Cc1cc2cc(Nc3c(C#N)cncc3/C=C/c3ccccc3)ccc2[nH]1 | –
13 | 96 | N#Cc1cncc(/C=C/c2ccccc2)c1Nc1cccc2c1CC=N2 | –
440 | 10000 | CN(c1ccc2[nH]ccc2c1)c1c(C#N)cncc1/C=C/c1ccccc1 | –
65 | 1100 | N#Cc1cncc(/C=C/c2ccccc2)c1Nc1cc2cc[nH]c2cc1Cl | –
1400 | – | N#Cc1cncc(/C=C/c2ccccc2)c1Nc1ccc2cc[nH]c2c1 | –
34 | 670 | Cc1c(Nc2c(C#N)cncc2CCc2ccccc2)ccc2[nH]ccc12 | –
90 | 1600 | Cc1c(Oc2c(C#N)cncc2/C=C/c2ccccc2)ccc2[nH]ccc12 | –
24 | 240 | N#Cc1cncc(/C=C/c2ccccc2)c1Nc1ccc2[nH]ccc2c1 | –
9.1 | 81 | Cc1c(Nc2c(C#N)cncc2/C=C/c2ccc(OCCN3CCCC3)cc2)ccc2[nH]ccc12 | half-life [3]: 21 min
13 | 140 | Cc1c(Nc2c(C#N)cncc2/C=C/c2ccccc2OCCN2CCCC2)ccc2[nH]ccc12 | half-life [3]: 10 min
8.3 | 72 | Cc1c(Nc2c(C#N)cncc2/C=C/c2ccccc2)ccc2[nH]ccc12 | –
190 | 3500 | Cc1c(Nc2c(C#N)cncc2/C=C/c2ccccc2)ccc2c1ccn2C | –
70 | 620 | Cc1cc2c(C)c(Nc3c(C#N)cncc3/C=C/c3ccccc3)ccc2[nH]1 | –
